In test [1] the target is Serine/threonine-protein kinase 32B (Homo sapiens) (UniProt Q9NY57). The conditions noted are these: at 10 µM.
The target in test [2] is T1, MAP kinase-activated protein kinase 5 (Homo sapiens) (UniProt Q8IW41).
T1 sequence (whole entry): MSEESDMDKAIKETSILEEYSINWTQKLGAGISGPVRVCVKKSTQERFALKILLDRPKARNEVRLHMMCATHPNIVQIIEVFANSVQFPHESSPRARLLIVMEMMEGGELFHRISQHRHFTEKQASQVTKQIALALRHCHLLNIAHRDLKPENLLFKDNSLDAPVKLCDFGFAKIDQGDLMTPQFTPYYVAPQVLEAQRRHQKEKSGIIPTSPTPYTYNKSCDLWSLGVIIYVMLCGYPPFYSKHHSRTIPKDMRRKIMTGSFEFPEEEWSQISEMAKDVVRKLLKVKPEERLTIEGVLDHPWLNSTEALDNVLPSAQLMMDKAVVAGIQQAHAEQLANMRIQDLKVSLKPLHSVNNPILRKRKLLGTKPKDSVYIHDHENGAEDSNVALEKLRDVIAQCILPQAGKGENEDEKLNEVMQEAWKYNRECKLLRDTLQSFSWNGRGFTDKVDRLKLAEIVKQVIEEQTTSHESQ
Kind of test: Selectivity interaction (KinomeScan (DiscoverX)) EUB0001049a MAPKAPK5. The conditions noted are these: at 1 µM.

The target of test [3] is Cyclin-dependent kinase 15 (Homo sapiens) (UniProt Q96Q40). Kind of test: Selectivity interaction (KinomeScan (DiscoverX)) EUB0000695a CDK15. The conditions noted are these: at 100 nM.
Cyclin-dependent kinase 15 (Homo sapiens), sequence (Q96Q40 whole entry): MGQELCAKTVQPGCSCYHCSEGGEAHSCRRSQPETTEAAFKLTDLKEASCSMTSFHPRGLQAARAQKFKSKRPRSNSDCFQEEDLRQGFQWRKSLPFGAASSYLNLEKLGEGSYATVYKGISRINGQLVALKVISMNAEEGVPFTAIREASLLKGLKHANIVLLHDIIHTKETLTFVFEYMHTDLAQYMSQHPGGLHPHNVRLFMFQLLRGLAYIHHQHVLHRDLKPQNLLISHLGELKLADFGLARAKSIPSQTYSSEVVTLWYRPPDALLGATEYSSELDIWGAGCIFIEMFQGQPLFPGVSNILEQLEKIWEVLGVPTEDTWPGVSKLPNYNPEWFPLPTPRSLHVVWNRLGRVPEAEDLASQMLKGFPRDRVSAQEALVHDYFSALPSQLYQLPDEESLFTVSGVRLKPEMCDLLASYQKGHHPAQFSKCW
Test [4] has as its target T2, Serine/threonine-protein kinase tousled-like 1 (Homo sapiens) (UniProt Q9UKI8).
T2 sequence (whole entry): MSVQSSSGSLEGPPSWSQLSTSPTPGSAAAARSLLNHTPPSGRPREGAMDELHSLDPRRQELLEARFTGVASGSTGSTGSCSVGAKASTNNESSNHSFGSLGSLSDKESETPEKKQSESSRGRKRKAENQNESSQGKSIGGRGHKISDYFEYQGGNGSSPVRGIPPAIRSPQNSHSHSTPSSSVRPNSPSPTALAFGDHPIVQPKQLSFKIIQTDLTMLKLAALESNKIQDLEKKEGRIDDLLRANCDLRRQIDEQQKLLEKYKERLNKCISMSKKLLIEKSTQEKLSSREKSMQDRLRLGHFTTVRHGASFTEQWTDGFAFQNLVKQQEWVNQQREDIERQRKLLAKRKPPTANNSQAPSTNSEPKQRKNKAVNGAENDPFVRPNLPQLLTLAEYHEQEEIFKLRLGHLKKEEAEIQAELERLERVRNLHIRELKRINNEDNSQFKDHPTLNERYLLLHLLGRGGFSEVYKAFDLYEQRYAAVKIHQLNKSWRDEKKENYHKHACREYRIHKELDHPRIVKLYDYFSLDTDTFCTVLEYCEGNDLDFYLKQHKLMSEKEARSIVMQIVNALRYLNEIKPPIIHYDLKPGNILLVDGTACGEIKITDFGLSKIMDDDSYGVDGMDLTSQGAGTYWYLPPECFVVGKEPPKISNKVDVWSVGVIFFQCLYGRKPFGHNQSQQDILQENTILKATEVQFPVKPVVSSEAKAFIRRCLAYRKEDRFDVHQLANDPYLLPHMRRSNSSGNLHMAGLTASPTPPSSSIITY
Put plainly: Selectivity interaction (KinomeScan (DiscoverX)) EUB0000045b TLK1.

Test [5] concerns the target T3, Serine/threonine-protein kinase greatwall (Homo sapiens) (UniProt Q96GX5).
T3 sequence (whole entry): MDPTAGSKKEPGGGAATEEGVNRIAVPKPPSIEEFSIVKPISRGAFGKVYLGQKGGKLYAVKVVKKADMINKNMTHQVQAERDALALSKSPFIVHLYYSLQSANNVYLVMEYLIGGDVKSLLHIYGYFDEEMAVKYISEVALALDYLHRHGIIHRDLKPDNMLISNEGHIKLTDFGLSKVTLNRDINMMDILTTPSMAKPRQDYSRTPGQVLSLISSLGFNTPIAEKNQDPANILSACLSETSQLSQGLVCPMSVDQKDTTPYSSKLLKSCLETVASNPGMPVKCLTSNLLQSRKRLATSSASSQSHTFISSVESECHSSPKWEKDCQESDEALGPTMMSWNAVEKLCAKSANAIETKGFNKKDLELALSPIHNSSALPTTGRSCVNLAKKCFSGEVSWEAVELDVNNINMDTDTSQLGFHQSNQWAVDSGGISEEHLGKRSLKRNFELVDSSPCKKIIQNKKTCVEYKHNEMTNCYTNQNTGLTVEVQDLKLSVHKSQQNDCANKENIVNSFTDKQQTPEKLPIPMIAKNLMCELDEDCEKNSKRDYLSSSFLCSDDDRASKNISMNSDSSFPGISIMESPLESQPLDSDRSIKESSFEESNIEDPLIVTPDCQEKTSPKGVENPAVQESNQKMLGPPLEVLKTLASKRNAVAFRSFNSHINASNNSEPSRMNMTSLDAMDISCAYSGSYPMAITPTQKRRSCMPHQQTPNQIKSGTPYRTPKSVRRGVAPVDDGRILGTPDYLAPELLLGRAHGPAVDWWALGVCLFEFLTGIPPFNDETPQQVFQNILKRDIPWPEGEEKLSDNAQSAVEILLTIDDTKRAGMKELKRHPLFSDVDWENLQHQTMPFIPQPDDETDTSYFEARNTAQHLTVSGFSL
Kind of test: Selectivity interaction (ActivX KiNativ screen (kinase selectivity in THP-1 cell lysates)) EUB0000639a MASTL. The test is classed as subcellular. The conditions noted are these: lysate, at 0.01 µM.

Test [6] concerns the target STE20-like serine/threonine-protein kinase (Homo sapiens, UniProt Q9H2G2). Put plainly: Selectivity interaction (ActivX KiNativ screen (kinase selectivity in THP-1 cell lysates)) EUB0000639a SLK. Format: subcellular. The conditions noted are these: lysate, at 0.2 µM.
Test [7] addresses T4, Serine/threonine-protein kinase RIO1 (Homo sapiens) (UniProt Q9BRS2).
T4 sequence (whole entry): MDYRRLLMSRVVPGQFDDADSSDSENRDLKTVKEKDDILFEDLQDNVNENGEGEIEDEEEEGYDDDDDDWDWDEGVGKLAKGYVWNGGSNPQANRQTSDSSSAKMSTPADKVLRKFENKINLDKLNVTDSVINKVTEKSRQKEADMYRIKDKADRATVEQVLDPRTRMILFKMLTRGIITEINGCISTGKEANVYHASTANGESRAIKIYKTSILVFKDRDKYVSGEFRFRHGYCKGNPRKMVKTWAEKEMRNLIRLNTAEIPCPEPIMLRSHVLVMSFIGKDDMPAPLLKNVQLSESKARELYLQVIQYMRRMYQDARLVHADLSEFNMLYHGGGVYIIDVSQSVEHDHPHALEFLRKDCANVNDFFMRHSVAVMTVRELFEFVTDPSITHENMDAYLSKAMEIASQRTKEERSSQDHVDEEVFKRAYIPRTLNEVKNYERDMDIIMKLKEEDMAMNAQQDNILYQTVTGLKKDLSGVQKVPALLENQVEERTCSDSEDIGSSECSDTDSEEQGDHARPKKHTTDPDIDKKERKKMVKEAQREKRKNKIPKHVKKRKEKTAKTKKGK
Put plainly: Selectivity interaction (KinomeScan (DiscoverX)) EUB0001619a RIOK1. The conditions noted are these: at 1 µM.

Serine/threonine-protein kinase 32B (Homo sapiens), sequence (Q9NY57 whole entry): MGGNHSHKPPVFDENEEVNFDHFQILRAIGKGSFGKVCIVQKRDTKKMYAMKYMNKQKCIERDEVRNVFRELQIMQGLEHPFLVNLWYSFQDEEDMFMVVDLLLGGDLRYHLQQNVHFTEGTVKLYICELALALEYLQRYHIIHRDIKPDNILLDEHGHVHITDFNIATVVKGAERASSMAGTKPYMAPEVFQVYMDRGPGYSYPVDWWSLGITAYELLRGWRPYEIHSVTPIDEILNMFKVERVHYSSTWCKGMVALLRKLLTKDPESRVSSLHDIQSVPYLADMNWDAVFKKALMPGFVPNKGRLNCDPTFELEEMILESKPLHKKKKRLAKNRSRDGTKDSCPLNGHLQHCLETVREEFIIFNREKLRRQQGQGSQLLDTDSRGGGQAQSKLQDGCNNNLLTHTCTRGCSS
STE20-like serine/threonine-protein kinase, sequence (Q9H2G2 whole entry, looked up): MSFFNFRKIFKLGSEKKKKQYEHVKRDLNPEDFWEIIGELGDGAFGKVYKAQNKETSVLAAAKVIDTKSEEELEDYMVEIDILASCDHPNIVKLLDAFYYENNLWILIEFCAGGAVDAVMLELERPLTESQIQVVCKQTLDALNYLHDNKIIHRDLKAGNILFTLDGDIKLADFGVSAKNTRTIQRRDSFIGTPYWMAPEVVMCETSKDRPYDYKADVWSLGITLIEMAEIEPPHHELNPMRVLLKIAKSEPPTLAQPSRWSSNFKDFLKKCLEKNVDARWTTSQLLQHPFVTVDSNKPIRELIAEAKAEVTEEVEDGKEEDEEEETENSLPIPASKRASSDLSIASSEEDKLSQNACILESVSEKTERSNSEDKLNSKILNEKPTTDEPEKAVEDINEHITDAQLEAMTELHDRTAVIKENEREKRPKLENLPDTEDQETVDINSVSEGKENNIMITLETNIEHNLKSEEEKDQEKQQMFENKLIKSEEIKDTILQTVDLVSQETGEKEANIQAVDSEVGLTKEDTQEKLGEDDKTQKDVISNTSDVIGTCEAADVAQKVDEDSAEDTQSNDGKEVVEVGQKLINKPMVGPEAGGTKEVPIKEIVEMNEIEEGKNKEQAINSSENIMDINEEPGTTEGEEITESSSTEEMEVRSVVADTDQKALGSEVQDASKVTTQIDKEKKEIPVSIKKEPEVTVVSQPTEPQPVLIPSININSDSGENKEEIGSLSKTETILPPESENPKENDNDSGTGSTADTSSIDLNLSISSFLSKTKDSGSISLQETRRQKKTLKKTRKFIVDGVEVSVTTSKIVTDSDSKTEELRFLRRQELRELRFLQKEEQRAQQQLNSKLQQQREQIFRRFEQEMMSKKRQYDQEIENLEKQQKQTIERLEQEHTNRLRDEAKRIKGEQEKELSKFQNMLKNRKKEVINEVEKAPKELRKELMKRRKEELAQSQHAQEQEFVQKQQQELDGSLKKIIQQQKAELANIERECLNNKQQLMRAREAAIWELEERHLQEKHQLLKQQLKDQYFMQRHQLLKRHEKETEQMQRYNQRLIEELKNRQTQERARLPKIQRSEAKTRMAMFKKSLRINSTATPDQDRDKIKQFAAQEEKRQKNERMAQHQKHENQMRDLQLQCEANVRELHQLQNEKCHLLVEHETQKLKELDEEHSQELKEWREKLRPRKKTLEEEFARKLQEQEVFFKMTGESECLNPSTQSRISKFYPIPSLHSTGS

In turn, `Cc1cc([C@@H](C)Nc2ccccc2C(=O)O)c2nc(N3CCOCC3)cc(=O)n2c1` [AZD-6482] displayed a % of control in test [1] of 71%. As to `COc1cc(Nc2nc(C)cc(-c3cnn4nc(OC)ccc34)n2)cc(C(F)(F)F)c1`, the % of control in test [2] came out at 82%. As to `Cc1cc(F)c(C(=O)Nc2cccc(-c3nncn3C(C)C)n2)cc1-n1cnc(C2CC2)c1`, the % of control in test [3] amounted to 100%. With `C=CC(=O)Nc1cc(-n2c(=O)ccc3cnc4ccc(-c5ccc(NS(C)(=O)=O)cc5)cc4c32)ccc1C`, the % of control in test [4] (at 1 µM) came out at 86%; in test [4] (at 10 µM), 96%. `CC[C@@H]1[C@H](F)C(=O)N[C@@H]1COc1nccc2cc(C(N)=O)c(OC)cc12` [ZIMLOVISERTIB]: the results for the % of inhibition in test [5] and in test [6] were 16.1% and -1.2%, respectively. The compound `N#Cc1cccc(-c2c[nH]c3ncnc(N4CCOCC4)c23)c1` registered a % of control in test [7] of 38%.
